Test results: ChEMBL document CHEMBL1201862, “PubChem BioAssay data set” (2004)
Activity calls are given as the source filed them.

Experiments:
Streptokinase A = biological target: T1, Streptokinase A (Streptococcus pyogenes serotype M1, UniProt P10520); test: viability-normalized secreted streptokinase activity reduction – plasminogen activation absorbance, OD405, dose response (AID 1914); type: functional, Streptococcus pyogenes M1 GAS;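 also: secreted streptokinase activity via plasminogen activation per viability signal from cell pellet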
T1 sequence (P10520 whole entry): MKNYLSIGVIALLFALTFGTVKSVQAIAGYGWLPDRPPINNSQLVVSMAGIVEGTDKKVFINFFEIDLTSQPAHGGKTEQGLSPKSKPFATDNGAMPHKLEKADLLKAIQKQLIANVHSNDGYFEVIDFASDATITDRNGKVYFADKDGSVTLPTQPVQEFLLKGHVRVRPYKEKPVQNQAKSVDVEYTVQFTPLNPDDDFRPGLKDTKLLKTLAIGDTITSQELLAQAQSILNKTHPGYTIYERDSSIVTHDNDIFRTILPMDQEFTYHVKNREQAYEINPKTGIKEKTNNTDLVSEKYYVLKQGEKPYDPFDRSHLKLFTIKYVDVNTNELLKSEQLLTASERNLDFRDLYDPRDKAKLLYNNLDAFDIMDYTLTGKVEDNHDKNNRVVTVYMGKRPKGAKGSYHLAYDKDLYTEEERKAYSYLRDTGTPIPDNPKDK

[1] = biological target: T2, G-protein coupled receptor 55 (Homo sapiens, UniProt Q9Y2T6); test: inhibition of LPI-stimulated GPR55 beta-arrestin translocation – imaging, U2OS, beta-arrestin-GFP, LPI agonist, primary screen (AID 2013); type: functional;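 also: antagonist potency measured as reduced agonist-driven arrestin aggregation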
T2 sequence (Q9Y2T6 whole entry): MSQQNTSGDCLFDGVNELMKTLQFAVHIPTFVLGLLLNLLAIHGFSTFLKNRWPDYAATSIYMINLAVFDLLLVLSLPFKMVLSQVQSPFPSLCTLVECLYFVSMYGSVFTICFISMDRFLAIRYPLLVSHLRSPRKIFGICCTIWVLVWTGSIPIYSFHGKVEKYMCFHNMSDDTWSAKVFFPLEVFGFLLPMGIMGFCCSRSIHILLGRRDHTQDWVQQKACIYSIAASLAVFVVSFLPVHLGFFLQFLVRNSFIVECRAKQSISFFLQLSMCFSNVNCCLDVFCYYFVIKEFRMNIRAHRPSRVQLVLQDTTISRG

Cannabinoid receptor 1 [2] = biological target: T3, Cannabinoid receptor 1 (Homo sapiens, UniProt P21554); test: SAR analysis of antagonists of the Cannabinoid Receptor 1 using an Image-Based Assay - Set 2. [Related pubchem assays (depositor defined):AID2013, AID2026]; type: functional
T3 sequence (P21554 whole entry): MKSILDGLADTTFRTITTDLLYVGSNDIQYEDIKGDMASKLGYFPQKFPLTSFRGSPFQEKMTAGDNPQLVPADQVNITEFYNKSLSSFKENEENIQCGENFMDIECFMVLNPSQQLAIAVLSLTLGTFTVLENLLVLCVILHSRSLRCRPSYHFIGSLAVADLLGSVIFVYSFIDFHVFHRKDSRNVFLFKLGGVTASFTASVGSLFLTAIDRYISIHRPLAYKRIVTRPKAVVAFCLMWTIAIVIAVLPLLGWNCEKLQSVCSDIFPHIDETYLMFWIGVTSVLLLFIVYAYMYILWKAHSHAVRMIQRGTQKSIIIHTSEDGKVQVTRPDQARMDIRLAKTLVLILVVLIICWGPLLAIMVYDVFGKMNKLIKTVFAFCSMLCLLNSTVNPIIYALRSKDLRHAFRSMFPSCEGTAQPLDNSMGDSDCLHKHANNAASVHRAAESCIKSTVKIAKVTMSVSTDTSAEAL

[3] = biological target: T4, G-protein coupled receptor 35 (Homo sapiens, UniProt Q9HC97); test: SAR analysis of Agonists of the GPR35 Receptor using an Image-Based Assay - Set 2. [Related pubchem assays (depositor defined):AID2013, AID2026]; type: functional
T4 sequence (Q9HC97 whole entry): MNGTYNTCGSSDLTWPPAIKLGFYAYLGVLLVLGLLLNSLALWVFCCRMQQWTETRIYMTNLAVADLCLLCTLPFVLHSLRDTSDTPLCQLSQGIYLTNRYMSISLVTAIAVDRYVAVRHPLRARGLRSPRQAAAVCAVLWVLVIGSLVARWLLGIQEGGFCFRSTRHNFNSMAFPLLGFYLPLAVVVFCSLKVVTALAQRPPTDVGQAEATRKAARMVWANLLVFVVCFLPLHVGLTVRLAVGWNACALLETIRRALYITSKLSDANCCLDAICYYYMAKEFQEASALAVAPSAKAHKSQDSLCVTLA

Cannabinoid receptor 2 [4] = biological target: T5, Cannabinoid receptor 2 (Homo sapiens, UniProt P34972); test: SAR analysis of antagonists of the Cannabinoid Receptor 2 using an Image-Based Assay. [Related pubchem assays (depositor defined):AID2013, AID2026]; type: functional
T5 sequence (P34972 whole entry): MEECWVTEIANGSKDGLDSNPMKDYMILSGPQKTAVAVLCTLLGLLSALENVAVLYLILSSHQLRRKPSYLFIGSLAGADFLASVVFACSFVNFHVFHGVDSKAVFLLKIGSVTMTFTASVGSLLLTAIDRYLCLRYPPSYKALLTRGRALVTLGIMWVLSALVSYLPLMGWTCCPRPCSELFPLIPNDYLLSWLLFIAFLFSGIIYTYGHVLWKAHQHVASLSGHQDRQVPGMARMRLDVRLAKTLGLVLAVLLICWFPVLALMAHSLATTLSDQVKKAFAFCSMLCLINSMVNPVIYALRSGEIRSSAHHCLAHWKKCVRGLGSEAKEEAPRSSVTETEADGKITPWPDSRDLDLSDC

Cannabinoid receptor 1 [5] = biological target: T3, Cannabinoid receptor 1; test: SAR analysis of agonists of the Cannabinoid Receptor 1 using an Image-Based Assay - Set 2. [Related pubchem assays (depositor defined):AID2013, AID2026]; type: functional
[6] = biological target: T4, G-protein coupled receptor 35; test: SAR analysis of Antagonists of the GPR35 Receptor using an Image-Based Assay - Set 3. [Related pubchem assays (depositor defined):AID2013, AID2026]; type: functional
[7] = biological target: T2, G-protein coupled receptor 55; test: blockade of LPI-induced GPR55 arrestin translocation – imaging, U2OS, beta-arrestin-GFP, LPI agonist, set 2, SAR follow-up (AID 2820); type: functional
Cannabinoid receptor 2 [8] = biological target: T5, Cannabinoid receptor 2; test: SAR analysis of agonists of the Cannabinoid Receptor 2 using an Image-Based Assay. [Related pubchem assays (depositor defined):AID2013, AID2026]; type: functional
Mu-type opioid receptor = Mu-type opioid receptor (Homo sapiens, UniProt P35372); test: SAR Analysis of Antagonists of the MOR Receptor using an Image-Based Assay - Set 3. [Related pubchem assays (depositor defined):AID1777, AID1785, AID1786, AID1966, AID2133, AID2136, AID2284, AID2285, AID2420]; type: functional
Mu-type opioid receptor, sequence (P35372 whole entry): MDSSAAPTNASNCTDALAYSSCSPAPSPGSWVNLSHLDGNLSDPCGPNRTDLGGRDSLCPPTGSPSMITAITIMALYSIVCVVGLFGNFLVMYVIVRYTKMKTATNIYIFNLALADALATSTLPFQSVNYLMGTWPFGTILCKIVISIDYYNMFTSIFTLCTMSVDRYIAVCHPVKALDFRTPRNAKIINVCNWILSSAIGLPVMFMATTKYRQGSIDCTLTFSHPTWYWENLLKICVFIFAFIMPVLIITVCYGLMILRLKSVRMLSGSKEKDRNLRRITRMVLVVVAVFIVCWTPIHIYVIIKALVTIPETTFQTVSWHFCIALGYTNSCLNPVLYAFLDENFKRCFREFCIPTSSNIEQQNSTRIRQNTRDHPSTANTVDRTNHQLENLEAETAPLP

[9] = biological target: Delta-type opioid receptor (Homo sapiens, UniProt P41143); test: SAR Analysis of Antagonists of the DOR Receptor using an Image-Based Assay - Set 3. [Related pubchem assays (depositor defined):AID1777, AID1785]; type: functional;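 also: U2OS cells expressing DOR1 and beta-arrestin GFP stimulated with 100 nM SNC80; imaging of GFP-tagged beta-arrestin moving into spots after receptor activation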
Delta-type opioid receptor, sequence (P41143 whole entry): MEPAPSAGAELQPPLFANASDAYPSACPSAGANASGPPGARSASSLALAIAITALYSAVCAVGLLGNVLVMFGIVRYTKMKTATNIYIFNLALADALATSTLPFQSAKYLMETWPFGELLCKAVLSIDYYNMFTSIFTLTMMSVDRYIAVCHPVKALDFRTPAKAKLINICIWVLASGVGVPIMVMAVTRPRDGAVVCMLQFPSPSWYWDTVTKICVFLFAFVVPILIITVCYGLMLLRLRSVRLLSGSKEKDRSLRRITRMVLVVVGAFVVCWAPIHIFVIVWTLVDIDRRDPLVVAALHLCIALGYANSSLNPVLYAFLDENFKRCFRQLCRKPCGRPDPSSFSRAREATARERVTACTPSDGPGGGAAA

[10] = biological target: T6, Kappa-type opioid receptor (Homo sapiens, UniProt P41145); test: SAR analysis of Antagonists of the Kappa Opioid Receptor (KOR) using an Image-Based Assay - Set 4. [Related pubchem assays (depositor defined):AID1777, AID1785]; type: functional
T6 sequence (P41145 whole entry): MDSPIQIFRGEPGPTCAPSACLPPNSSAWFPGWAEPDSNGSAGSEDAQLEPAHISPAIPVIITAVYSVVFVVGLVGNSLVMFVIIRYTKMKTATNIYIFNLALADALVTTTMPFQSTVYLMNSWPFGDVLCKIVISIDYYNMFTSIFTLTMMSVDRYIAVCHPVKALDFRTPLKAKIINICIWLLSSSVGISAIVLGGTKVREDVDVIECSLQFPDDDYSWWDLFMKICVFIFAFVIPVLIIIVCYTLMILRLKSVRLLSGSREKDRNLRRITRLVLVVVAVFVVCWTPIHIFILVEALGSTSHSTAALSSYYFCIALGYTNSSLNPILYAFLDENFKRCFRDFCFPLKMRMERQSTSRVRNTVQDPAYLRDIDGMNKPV

[11] = biological target: T6, Kappa-type opioid receptor; test: SAR analysis of small molecule agonists of the kappa opioid receptor via a luminescent beta-arrestin assay - Set 3. [Related pubchem assays (depositor defined):AID1777, AID1785, AID1786, AID1966, AID2133, AID2136, AID2284, AID2500]; type: functional
[12] = biological target: Eukaryotic translation initiation factor 4H (Homo sapiens, UniProt Q15056); test: eIF4H binding inhibition – biochemical, uHTS, fluorescence polarization, translation initiation inhibitor project, primary screen (AID 2012)
Large T antigen = Large T antigen (Simian virus 40, UniProt P03070); type: functional, Betapolyomavirus macacae;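 also: Confirmatory-stage PubChem screen for compounds that inhibit SV40 T antigen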
[13] = biological target: Induced myeloid leukemia cell differentiation protein Mcl-1 (Homo sapiens, UniProt Q07820); type: functional
Induced myeloid leukemia cell differentiation protein Mcl-1, sequence (Q07820 whole entry): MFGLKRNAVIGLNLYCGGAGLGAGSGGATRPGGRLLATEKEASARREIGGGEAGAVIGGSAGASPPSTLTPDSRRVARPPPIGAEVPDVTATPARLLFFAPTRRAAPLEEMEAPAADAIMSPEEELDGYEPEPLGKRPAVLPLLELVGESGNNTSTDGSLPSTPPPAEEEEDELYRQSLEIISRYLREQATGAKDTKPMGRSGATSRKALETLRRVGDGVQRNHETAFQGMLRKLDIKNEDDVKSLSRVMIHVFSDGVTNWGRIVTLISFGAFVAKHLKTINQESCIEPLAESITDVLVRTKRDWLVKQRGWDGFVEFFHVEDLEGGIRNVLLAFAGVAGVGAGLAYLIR

[14] = biological target: Polyadenylate-binding protein 1 (Homo sapiens, UniProt P11940); test: blockers of PABP interaction with poly(A) – biochemical, fluorescence polarization, […] (AID 2014)
Polyadenylate-binding protein 1, sequence (P11940 whole entry): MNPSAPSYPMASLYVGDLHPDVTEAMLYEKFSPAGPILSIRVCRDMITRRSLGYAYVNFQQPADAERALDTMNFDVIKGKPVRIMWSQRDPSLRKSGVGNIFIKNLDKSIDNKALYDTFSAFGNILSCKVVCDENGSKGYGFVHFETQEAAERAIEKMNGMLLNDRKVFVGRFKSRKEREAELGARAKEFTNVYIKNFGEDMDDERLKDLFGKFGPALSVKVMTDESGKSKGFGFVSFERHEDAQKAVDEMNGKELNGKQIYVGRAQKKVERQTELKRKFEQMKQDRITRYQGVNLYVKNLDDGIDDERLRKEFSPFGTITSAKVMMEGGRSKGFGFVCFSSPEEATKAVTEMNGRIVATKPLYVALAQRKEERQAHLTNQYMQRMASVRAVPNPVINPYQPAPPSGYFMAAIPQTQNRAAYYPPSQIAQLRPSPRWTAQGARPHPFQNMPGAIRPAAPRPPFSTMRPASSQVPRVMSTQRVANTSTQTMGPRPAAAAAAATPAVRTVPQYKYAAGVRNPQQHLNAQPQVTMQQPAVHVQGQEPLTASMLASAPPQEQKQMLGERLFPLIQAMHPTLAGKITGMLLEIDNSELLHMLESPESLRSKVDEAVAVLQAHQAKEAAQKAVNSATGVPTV

[15] = biological target: Intestinal-type alkaline phosphatase (Homo sapiens, UniProt P09923); test: activation of human intestinal alkaline phosphatase – biochemical, dose response (AID 488873); type: functional
[16] = biological target: Intestinal-type alkaline phosphatase (Mus musculus, UniProt P24822); test: mouse intestinal alkaline phosphatase activators, dose response, biochemical, luminescence, uHTS hits (AID 488783); type: functional
Intestinal-type alkaline phosphatase (Mus musculus, UniProt P24822), sequence (P24822 whole entry): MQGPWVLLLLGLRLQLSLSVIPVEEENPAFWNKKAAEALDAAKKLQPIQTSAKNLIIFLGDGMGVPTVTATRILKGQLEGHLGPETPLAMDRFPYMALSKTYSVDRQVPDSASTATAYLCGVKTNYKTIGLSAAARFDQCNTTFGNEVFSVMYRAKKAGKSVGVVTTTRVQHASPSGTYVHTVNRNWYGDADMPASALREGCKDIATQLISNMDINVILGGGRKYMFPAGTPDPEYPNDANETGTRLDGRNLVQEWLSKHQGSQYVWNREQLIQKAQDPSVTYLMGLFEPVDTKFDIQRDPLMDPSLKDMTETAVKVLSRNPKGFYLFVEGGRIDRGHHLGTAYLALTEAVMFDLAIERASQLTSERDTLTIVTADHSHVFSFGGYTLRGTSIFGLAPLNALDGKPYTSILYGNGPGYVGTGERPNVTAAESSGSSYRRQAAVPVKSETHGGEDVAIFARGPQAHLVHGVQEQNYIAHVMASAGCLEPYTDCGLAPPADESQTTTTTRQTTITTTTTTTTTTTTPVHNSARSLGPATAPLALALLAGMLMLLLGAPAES

[17] = biological target: T7, Alkaline phosphatase, tissue-nonspecific isozyme (Homo sapiens, UniProt P05186); test: activation of tissue-nonspecific alkaline phosphatase – biochemical, TNAP isozyme, mouse IAP uHTS hits, selectivity assay for mouse IAP activator project, dose response (AID 488880); type: functional
T7 sequence (P05186 whole entry): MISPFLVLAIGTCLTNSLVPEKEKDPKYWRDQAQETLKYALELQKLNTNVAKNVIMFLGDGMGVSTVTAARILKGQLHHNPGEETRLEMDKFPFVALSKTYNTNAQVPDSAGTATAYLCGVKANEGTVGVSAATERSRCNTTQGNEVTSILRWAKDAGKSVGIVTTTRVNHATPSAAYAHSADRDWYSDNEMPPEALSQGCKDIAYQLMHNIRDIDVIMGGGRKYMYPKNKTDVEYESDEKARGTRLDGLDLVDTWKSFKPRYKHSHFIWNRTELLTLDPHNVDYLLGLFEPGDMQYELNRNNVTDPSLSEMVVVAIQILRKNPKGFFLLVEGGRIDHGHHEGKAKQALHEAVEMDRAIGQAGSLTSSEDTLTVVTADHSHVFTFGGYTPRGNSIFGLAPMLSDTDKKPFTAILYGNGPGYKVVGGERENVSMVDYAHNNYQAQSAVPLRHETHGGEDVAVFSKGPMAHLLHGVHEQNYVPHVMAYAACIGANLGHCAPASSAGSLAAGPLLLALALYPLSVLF

[18] = biological target: Ras and Rab interactor 1/Tyrosine-protein kinase ABL1 (Homo sapiens, UniProt P00519+Q13671); type: functional;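 also: biochemical TR-FRET dose-response test measuring inhibition of binding between Rin1 and Abl proteins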
Albumin = Albumin (Bos taurus, UniProt P02769); test: Counterscreen for inhibitors of T-cell receptor (TCR)-CD3 interaction: Fluorescence-based biochemical high throughput dose response assay to identify inhibitors of T-cell receptor (TCR)-CD3 interaction using a TAMRA-labeled BSA probe.; type: functional
Caspase-6 = biological target: T8, Caspase-6 (Homo sapiens, UniProt P55212); test: inhibition of CASP6 peptide cleavage – biochemical, VEID-R110 fluorescence, cherry-pick, dose response (AID 720632)
T8 sequence (P55212 whole entry): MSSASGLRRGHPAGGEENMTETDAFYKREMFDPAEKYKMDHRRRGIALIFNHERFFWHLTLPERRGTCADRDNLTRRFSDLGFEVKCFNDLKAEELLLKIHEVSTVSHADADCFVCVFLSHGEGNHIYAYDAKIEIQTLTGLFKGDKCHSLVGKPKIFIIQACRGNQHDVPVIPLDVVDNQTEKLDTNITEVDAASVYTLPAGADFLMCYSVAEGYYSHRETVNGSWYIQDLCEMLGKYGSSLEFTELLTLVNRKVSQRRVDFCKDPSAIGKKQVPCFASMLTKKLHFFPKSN

Caspase-7 = Caspase-7 (Homo sapiens, UniProt P55210); test: caspase-7 enzyme inhibition, selectivity check – biochemical, DEVD-R110 fluorescence, cherry-pick, selectivity assay for caspase-6 inhibitor project, dose response (AID 743295); type: functional
Caspase-7, sequence (P55210 24-198 limits assumed): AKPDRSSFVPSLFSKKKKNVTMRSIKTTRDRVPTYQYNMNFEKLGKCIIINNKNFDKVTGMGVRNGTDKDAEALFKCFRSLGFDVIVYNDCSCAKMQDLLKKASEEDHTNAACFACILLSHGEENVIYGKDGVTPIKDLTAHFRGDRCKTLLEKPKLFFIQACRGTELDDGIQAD
Caspase-7, sequence (P55210 207-303 limits assumed): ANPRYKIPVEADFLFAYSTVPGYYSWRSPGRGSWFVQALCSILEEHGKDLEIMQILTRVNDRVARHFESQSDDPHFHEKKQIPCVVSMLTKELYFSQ

[19] = biological target: T9, Tyrosine-protein phosphatase non-receptor type 22 (Homo sapiens, UniProt Q9Y2R2); test: SAR LYP1 Fluorescent Assay using pCAP substrate for In Vitro dose response studies - Set 2. [Related pubchem assays (depositor defined):AID1779, AID1784, AID2135, AID449727]; type: functional
T9 sequence (Q9Y2R2 whole entry): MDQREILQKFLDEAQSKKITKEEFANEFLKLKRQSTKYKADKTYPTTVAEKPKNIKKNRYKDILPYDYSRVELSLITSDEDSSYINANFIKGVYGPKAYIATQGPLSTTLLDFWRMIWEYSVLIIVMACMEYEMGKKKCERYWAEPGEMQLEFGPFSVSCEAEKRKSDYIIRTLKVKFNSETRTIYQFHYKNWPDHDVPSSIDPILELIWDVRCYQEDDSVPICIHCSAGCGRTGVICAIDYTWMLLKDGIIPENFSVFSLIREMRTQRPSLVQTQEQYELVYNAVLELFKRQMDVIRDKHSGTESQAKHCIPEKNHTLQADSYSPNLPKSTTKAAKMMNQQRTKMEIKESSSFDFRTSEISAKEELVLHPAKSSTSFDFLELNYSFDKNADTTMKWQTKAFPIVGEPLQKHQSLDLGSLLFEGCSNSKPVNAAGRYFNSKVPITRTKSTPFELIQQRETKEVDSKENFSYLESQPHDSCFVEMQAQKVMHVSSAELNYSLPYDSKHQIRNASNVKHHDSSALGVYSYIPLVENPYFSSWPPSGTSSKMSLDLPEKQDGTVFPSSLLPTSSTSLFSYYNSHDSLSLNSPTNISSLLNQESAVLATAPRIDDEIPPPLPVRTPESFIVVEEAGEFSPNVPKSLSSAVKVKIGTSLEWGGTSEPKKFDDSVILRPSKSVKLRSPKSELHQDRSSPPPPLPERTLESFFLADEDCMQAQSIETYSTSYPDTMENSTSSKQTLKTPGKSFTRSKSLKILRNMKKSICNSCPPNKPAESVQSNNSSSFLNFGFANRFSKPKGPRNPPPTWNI

[20] = biological target: Tyrosine-protein phosphatase non-receptor type 12 (Homo sapiens, UniProt Q05209); test: SAR Selectivity Analysis of small molecule inhibitors of PEST using pCAP in a fluorescence assay. [Related pubchem assays (depositor defined):AID1779, AID1784, AID2135]; type: functional
[21] = biological target: T9, Tyrosine-protein phosphatase non-receptor type 22; test: SAR LYP1 Fluorescent Assay using OMFP substrate for In Vitro dose response studies - Set 3. [Related pubchem assays (depositor defined):AID1779, AID1784, AID2140, AID2686]; type: functional
[22] = biological target: T10, Tyrosine-protein phosphatase non-receptor type 7 (Homo sapiens, UniProt P35236); test: inhibition of hematopoietic tyrosine phosphatase HePTP – biochemical, set 2, SAR follow-up (AID 449736); type: functional
T10 sequence (P35236 whole entry): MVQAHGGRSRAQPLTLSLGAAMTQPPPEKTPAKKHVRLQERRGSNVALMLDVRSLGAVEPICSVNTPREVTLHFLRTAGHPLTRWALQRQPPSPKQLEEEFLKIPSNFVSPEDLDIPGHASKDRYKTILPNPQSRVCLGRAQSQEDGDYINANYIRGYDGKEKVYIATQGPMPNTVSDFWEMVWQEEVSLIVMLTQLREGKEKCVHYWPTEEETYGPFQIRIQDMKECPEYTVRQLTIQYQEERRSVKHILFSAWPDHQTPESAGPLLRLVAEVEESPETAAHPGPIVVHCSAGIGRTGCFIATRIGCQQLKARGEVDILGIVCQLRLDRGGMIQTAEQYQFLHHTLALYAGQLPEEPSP

[23] = biological target: T9, Tyrosine-protein phosphatase non-receptor type 22; test: inhibition of lymphoid tyrosine phosphatase LYP – biochemical, pCAP fluorogenic substrate, fluorescence, set 3, SAR follow-up (AID 449727); type: functional
[24] = biological target: T9, Tyrosine-protein phosphatase non-receptor type 22; test: SAR LYP1 Fluorescent Assay using OMFP substrate for In Vitro dose response studies - Set 2. [Related pubchem assays (depositor defined):AID1779, AID1784, AID2140, AID449726, AID488869]; type: functional

SMILES: COc1ccc(NS(=O)(=O)c2ccc3nc(COc4cccc5ccccc45)[nH]c3c2)cc1
- EC50 (Streptokinase A): 6.16 µM (active)
- IC50 [1]: 1.76 µM (active)
- IC50 (Cannabinoid receptor 1 [2]): 2.24 µM (active)
- EC50 [3]: > 32 µM (inactive)
- IC50 (Cannabinoid receptor 2 [4]): > 32 µM (inactive)
- EC50 (Cannabinoid receptor 1 [5]): > 32 µM (inactive)
- IC50 [6]: > 32 µM (inactive)
- IC50 [7]: 1.45 µM (active)
- EC50 (Cannabinoid receptor 2 [8]): > 32 µM (inactive)

SMILES: CC(C)OC(=O)C1(N(Cc2ccco2)C(=O)c2ccccn2)CCCCC1
- IC50 (Mu-type opioid receptor): 15 µM (inactive)
- IC50 [9]: > 32 µM (inactive)
- IC50 [10]: > 32 µM (inactive)
- EC50 [11]: > 20 µM (inactive)

SMILES: O=C(O)CC(CCc1ccccc1)OC1OC(CO)C(O)C(O)C1O (stereo not given)
- IC50 [12]: 23.6 µM (active)
- IC50 (Large T antigen): 57.6 µM (active)
- IC50 [13]: 1.61 µM (active)
- IC50 [14]: 69.4 µM (active)
- EC50 [15]: 59.2 µM (active)
- EC50 [16]: 33.7 µM (active)
- EC50 [17]: 57.6 µM (active)
- IC50 [18]: 50.2 µM (inactive)
- IC50 (Albumin): > 94.1 µM (inactive)
- AC50 (Caspase-6): 0.283 µM (active)
- AC50 (Caspase-7): 30.9 µM (active)

SMILES: O=C(O)COc1ccccc1/C=N/NC(=O)c1ccc(-c2csc(Nc3ccc(Cl)cc3)n2)cc1
- IC50 [19]: 4.1 µM (active)
- IC50 [20]: 1.49 µM (active)
- IC50 [21]: 1.29 µM (active)
- IC50 [22]: 0.841 µM (active)
- IC50 [23]: 3.5 µM (active)
- IC50 [24]: 5.67 µM (active)
